Results as given in patent US8937068B2, “Pyridopyrazine derivatives and their use” (Zentaris GmbH, priority 2005, dated 2015).

What was measured:
Hct116 = test: XTT assay, anti-proliferative effect, Hct116; assay type: cell-based; settings: 45 h incubation
Procedure: The principle of this test is based on the intracellular reduction of the tetrazolium dye XTT (sodium 3′-[1-(phenylaminocarbonyl)-3,4-tetrazolium]-bis(4-methoxy-6-nitro)benzene sulfonic acid, Sigma) to a formazan dye by mitochondrial dehydrogenases. The dye is only formed by metabolically active cells and its photometrically measurable intensity is a quantitative indicator for the presence of living cells. The reduction of dye formation by incubation of the cells with substances serves as a parameter for the anti-proliferative effect.
The tumour cell lines (ATCC) were injected into 96-well microtitre plates in a defined cell number (5000 cells/well for BxPC3 and Hct116; 10000 cells/well for MDA MB468) and then incubated overnight in an incubator at 37° C., 5% CO2 and 95% air humidity. The test substances were prepared as stock solutions (10 mM) in DMSO. […] The cell plates were then incubated for 45 h in an incubator at 37° C., 5% CO2 and 95% air humidity.
For the detection reaction the substrate XTT was mixed with PMS (N-Methyl dibenzopyrazine methylsulfate, Sigma) and added to the cells so that a final concentration of 325 μg XTT/ml and 2.5 μg PMS/ml was obtained. It was then incubated for 3 h at 37° C., 95% air humidity. The formazan salt formed by the cellular dehydrogenases could then be quantified by adsorption at 490 nm.
The % inhibition value was evaluated by means of the following formula from the values for the optical densities measured in each case at 490 nm:
Eight determinations were made for each control and two for the substance samples. The 0% control contains no cells, the 100% control (proliferation control) contains no test substance. The EC50 values were determined using GraphPadPrism.

PI3K → pAkt = test: Cellular substrate phosphorylation (Western Blotting), PI3K substrate pAkt; assay type: cell-based; settings: 50 μM, 5 h
Procedure: This method can be used to predict whether the kinase modulator under study also achieves the desired effect in a cellular context, i.e. in this case, a substrate protein downstream of the target kinase is investigated for its phosphorylation status. For this purpose, the cells incubated with substance are lysed and the total protein separated on a reducing polyacrylamide gel. The proteins are then transferred to a PVDF membrane by means of Western Blotting and the substrate bands sought are made visible with specific antibodies and a suitable detection method. The substrate proteins downstream of the target kinases are detected simultaneously with a respectively special anti-phospho-antibody and at the same time a total antibody which recognizes the substrate total protein. This simultaneous measurement can be made using the duplex technology of the ODYSSEY imagers (LiCOR). The intensity of the total substrate bands is used for normalising or quantifying the phosphorylation inhibition or activation.
Suitable tumour cell lines (e.g. BxPC3, Hct116 or MDA MB468) were injected into six-well microtitre plates in a defined cell number (e.g. 350 000 cells/well for BxPC3 and Hct116) in the respective standard complete medium and then incubated overnight at 37° C., 5% CO2 and 95% air humidity. The cells were then incubated for a further 24 h under serum-reduced conditions i.e. in the respective medium but with only 0.25% serum. The test substances were prepared as stock solutions (10 mM) in DMSO and incubated with the cells in final concentrations of 5, 15.8 and 50 μM for 5 h. This was followed by cell lysis in 25 mM Tris, 150 mM NaCl, 10 mM Na-pyrophosphate, 2 mM EGTA, 25 mM β-glycerophosphate, 25 mM NaF, 10% glycerine, 0.75% NP-40, 100 μM NaVO4 buffer. Following protein quantification by means of BCA (bicinchonic acid protein assay kit, Sigma) Assay, protein quantities of about 20 μg per track were separated on a Lämmli polyacrylamide gel and then transferred to a PVDF membrane (Millipore) by means of Semi-Dry Western-Blotting at 0.8 mA/cm^2 for 1 h. This was followed by pre-hybridisation of the membrane for 1 hour in I-block reagent (Applied Biosystems) and incubation overnight with the specific antibodies. To determine the Erk and PI3K inhibition, the respectively downstream substrates Rsk1 were detected with the total antibody (Rsk #sc-231g C-21, Santa Cruz) and the phospho-antibody (Phospho-p90RSK (S380) #9341, NEB Cell Signalling) and Akt was detected with the total antibody (Akt1 #sc-1618 C-20, Santa Cruz) and the phospho-antibody (Phospho-Akt (Ser 473) #9271, NEB Cell Signaling). After washing the membrane, secondary antibody incubation was carried out with anti-rabbit IR Dye 800 (#611-732-127, Rockland) for the phospho-antibody and anti-goat Alexa Fluor 680 (#A-21081, Molecular Probes) for the total protein-antibody. After incubating for 30 min at room temperature in the dark, the hybridisation of the detection antibody on the membrane was detected by scanning in the ODYSSEY imager (LiCOR).
The reduction of the fluorescence intensity of the phospho-substrate bands (pRsk and pAkt) is given in the table below as % inhibition and relates to the following formula:
The band intensity (fluorescence intensity) of the respective non-inhibited (without substance) phospho-substrates was used as 100% control.

Compound	EC50 (Hct116) [µM]	EC50 (Hct116; Homo sapiens, HCT-116) [µM]	Inhibition of cellular substrate phosphorylation PI3K → pAkt (PI3K → pAkt) [%]	inhibition at 50 µM (PI3K → pAkt) [%]
CCNC(=O)Nc1ccc2ncc(-c3ccc(O)c(OC)c3)nc2n1.Cc1ccc(S(=O)(=O)O)cc1 [Compound 183, 1-Ethyl-3-[3-(4-hydroxy-3-methoxy-phenyl)-pyrido[2,3-b]pyrazin-6-yl]-urea p-Toluolsulfonate]	2.1		80	
CCNC(=O)Nc1ccc2ncc(-c3cnn(C)c3)nc2n1 [Compound 173, 1-Ethyl-3-[3-(1-methyl-1H-pyrazol-4-yl)-pyrido[2,3-b]pyrazin-6-yl]-urea]		9		50
O=C(NCCCCO)Nc1ccc2ncc(-c3ccccc3)nc2n1 [Compound 146, 1-(4-Hydroxy-butyl)-3-(3-phenyl-pyrido[2,3-b]pyrazin-6-yl)-urea]		9.3		10

Second part, led by results:

EC50 (Hct116) [µM]	EC50 (Hct116; Homo sapiens, HCT-116) [µM]	Compound	Inhibition of cellular substrate phosphorylation PI3K → pAkt (PI3K → pAkt) [%]	inhibition at 50 µM (PI3K → pAkt) [%]
	6	C=CCNC(=S)Nc1ccc2ncc(-c3ccc(O)cc3)nc2n1 [Compound 30, 1-allyl-3-[3-(4-hydroxy-phenyl)-pyrido[2,3-b]pyrazin-6-yl]-thiourea]		100
	1.5	CCNC(=O)Nc1ccc2ncc(-c3ccc(O)c(OC)c3)nc2n1 [Compound 124, 1-Ethyl-3-[3-(4-hydroxy-3-methoxy-phenyl)-pyrido[2,3-b]pyrazin-6-yl]-urea]		90
	2.3	CCNC(=O)Nc1ccc2ncc(Nc3ccc(C)cc3)nc2n1 [Compound 150, 1-Ethyl-3-(3-p-tolylamino-pyrido[2,3-b]pyrazin-6-yl)-urea]		90
